Reference: US10640495B2, “Heterocycle derivatives having TrkA inhibitory activity” (Shionogi & Co., Ltd., priority 2015, dated 2020)

molecular target: human TrkA (Homo sapiens (Human), UniProt P04629); test: Human TrkA inhibition assay (Test Example 2); assay type: biochemical; conditions: Table 152, human TrkA inhibition; read-out: IC50_nM
Summary of the method: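 Recombinant TrkA (1 nmol/L) was preincubated 15 min at room temperature with compound in HEPES/MgCl2/DTT buffer, then reacted with FL-peptide 27 (1.5 μmol/L) and ATP (500 μmol/L) for 120 min at 37 °C. After EDTA stop, substrate phosphorylation was read by microfluidic mobility shift. IC50 came from logistic regression over 3-fold dilution series.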

Sequence of human TrkA (P04629 440-796): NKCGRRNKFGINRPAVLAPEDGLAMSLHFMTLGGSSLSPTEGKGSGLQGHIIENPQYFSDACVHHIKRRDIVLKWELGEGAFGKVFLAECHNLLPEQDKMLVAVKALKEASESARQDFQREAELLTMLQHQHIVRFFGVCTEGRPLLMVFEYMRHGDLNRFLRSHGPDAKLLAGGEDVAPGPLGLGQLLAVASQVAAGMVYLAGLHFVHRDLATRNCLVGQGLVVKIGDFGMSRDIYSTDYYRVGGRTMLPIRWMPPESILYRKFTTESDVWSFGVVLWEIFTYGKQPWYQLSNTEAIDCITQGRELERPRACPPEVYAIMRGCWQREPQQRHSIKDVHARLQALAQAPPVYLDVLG

Compound	IC50
COCC[C@@H]1O[C@@H](NC(=O)Nc2c(C)c(-c3cnn(C)c3)nn2-c2ccccc2)[C@H](c2ccccc2)O1 (racemic) [Compound I-5]	< 0.1 µM
Cc1c(-c2cnn(C)c2)nn(-c2ccccc2)c1NC(=O)N[C@@H]1CN(Cc2csnn2)O[C@H]1c1ccccc1 (racemic) [Compound I-2]	0.1 to 1 µM

same assay, conditions: Table 153, human TrkA inhibition; read-out: IC50

Compound	IC50
COCCN1C[C@@H](NC(=O)Nc2c(C)c(-c3cnn(C)c3)nn2C2CC2)[C@H](c2ccc(F)c(F)c2)O1 (racemic) [Compound I-88]	> 1 µM
COCCN1C[C@@H](NC(=O)Nc2c(C)c(-c3ccnc(C(=O)OCc4ccccc4)c3)nn2-c2ccccc2)[C@H](c2ccc(F)c(F)c2)O1 (racemic) [Compound I-76]	< 0.1 µM
COCC[C@H]1C[C@H](NC(=O)Nc2c(C)c(C3=CCN(C(=O)CO)CC3)nn2-c2ccccc2)[C@@H](c2ccc(F)c(F)c2)O1 [Compound I-58]	0.1 to 1 µM
COCCN1C[C@@H](NC(=O)Nc2c(C)c(C3=CCNCC3)nn2-c2ccccc2)[C@H](c2cnc(F)c(F)c2)O1 (racemic) [Compound I-48]	< 0.1 µM
COCCN1C[C@@H](NC(=O)Nc2c(C)c(-c3cc(COC(C)=O)c(=O)n(C)c3)nn2-c2ccccc2)[C@H](c2ccc(F)c(F)c2)O1 (racemic) [Compound I-124]	< 0.1 µM
COCCN1C[C@@H](NC(=O)Nc2c(C)c(-c3cnc4c(c3)nnn4C)nn2-c2ccccc2)[C@H](c2ccccc2)O1 (racemic) [Compound I-162]	< 0.1 µM
COCCN1C[C@@H](NC(=O)Nc2c(C)c(-c3cc(COC(C)=O)c(=O)n(C)c3)nn2-c2ccccc2)[C@H](c2cnc(F)c(F)c2)O1 (racemic) [Compound I-80]	< 0.1 µM
CNC(=O)c1cc(-c2nn(-c3ccccc3)c(NC(=O)N[C@@H]3CN(CCOC)O[C@H]3c3ccccc3)c2C)cn(C)c1=O (racemic) [Compound I-163]	< 0.1 µM
COCCN1C[C@@H](NC(=O)Nc2c(C)c(C3=CCN(C(=O)CO)CC3)nn2-c2ccccc2)[C@H](c2ccc(F)c(F)c2)O1 (racemic) [Compound I-53]	< 0.1 µM
COCCN1C[C@@H](NC(=O)Nc2c(C)c(-c3cnc4c(cnn4C)c3)nn2-c2ccc(F)c(F)c2)[C@H](c2ccc(F)c(F)c2)O1 (racemic) [Compound I-175]	< 0.1 µM
CNC(=O)c1cc(-c2nn(-c3ccccc3)c(NC(=O)N[C@@H]3CN(CCOC)O[C@H]3c3ccnc(F)c3)c2C)cnc1OC (racemic) [Compound I-100]	< 0.1 µM

same assay, conditions: Table 154, human TrkA inhibition; read-out: IC50

Compound	IC50
COCCN1C[C@@H](NC(=O)Nc2c(C)c(-c3ccc(N4CCCC4)nc3)nn2-c2ccccc2)[C@H](c2ccnc(F)c2)O1 (racemic) [Compound I-283]	< 0.1 µM
COCCN1C[C@@H](NC(=O)Nc2c(C)c(-c3cnc(OC)c(C#N)c3)nn2-c2ccccc2)[C@H](c2ccnc(F)c2)O1 (racemic) [Compound I-307]	< 0.1 µM
COCCN1C[C@@H](NC(=O)Nc2c(C)c(-c3cnc(F)nc3)nn2-c2ccccc2)[C@H](c2ccnc(F)c2)O1 (racemic) [Compound I-300]	< 0.1 µM
COCCN1C[C@@H](NC(=O)Nc2c(C)c(-c3ccc(C(=O)O)nc3)nn2-c2ccccc2)[C@H](c2ccc(F)c(F)c2)O1 (racemic) [Compound I-214]	< 0.1 µM
COCCN1C[C@@H](NC(=O)Nc2c(C)c(-c3cnc(C(N)=O)c(C)c3)nn2-c2ccccc2)[C@H](c2cnc(F)c(F)c2)O1 [Compound I-252]	< 0.1 µM

same assay, conditions: Table 155, human TrkA inhibition; read-out: IC50

Compound	IC50
COCCN1C[C@@H](NC(=O)Nc2c(C)c(-c3cnc4c(c3)c(C(=O)N3CCN(C)CC3)nn4C)nn2-c2ccccc2)[C@H](c2ccnc(F)c2)O1 (racemic) [Compound I-377]	< 0.1 µM
COCCN1C[C@@H](NC(=O)Nc2c(C)c(-c3cnc4c(c3)NC(=O)CN4)nn2-c2ccccc2)[C@H](c2ccnc(F)c2)O1 (racemic) [Compound I-357]	< 0.1 µM
COCCN1C[C@@H](NC(=O)Nc2c(C)c(-c3cnc(COC)nc3)nn2-c2ccccc2)[C@H](c2ccnc(F)c2)O1 (racemic) [Compound I-444]	< 0.1 µM
COCCN1C[C@@H](NC(=O)Nc2c(C)c(-c3ccc4c(c3)N(C)C(=O)CO4)nn2-c2ccccc2)[C@H](c2ccnc(F)c2)O1 (racemic) [Compound I-365]	< 0.1 µM
COCCN1C[C@@H](NC(=O)Nc2c(C)c(-c3cccc(CN=S(C)(C)=O)c3)nn2-c2ccccc2)[C@H](c2ccc(F)c(F)c2)O1 [Compound I-333]	< 0.1 µM
COCCN1C[C@@H](NC(=O)Nc2c(C)c(-c3cnc4c(cnn4C)c3)nn2-c2ccccc2)[C@H](c2cnc(F)c(F)c2)O1 [Compound I-417]	< 0.1 µM
COCCN1C[C@@H](NC(=O)Nc2c(C)c(-c3cnc4c(c3)OCCO4)nn2-c2ccccc2)[C@H](c2ccc(F)c(F)c2)O1 [Compound I-463]	< 0.1 µM
COCCN1C[C@@H](NC(=O)Nc2c(C)c(-c3cnc(N4C[C@H]5COC[C@@H](C4)N5)nc3)nn2-c2ccccc2)[C@H](c2ccnc(F)c2)O1 (racemic) [Compound I-421]	< 0.1 µM
COCCN1C[C@@H](NC(=O)Nc2c(C)c(-c3cnc4c(c3)CN(C(C)=O)CC4)nn2-c2ccccc2)[C@H](c2ccnc(F)c2)O1 (racemic) [Compound I-439]	< 0.1 µM
COCCN1C[C@@H](NC(=O)Nc2c(C)c(-c3cnc4c(c3)CN(Cc3ccccc3)CC4)nn2-c2ccccc2)[C@H](c2ccnc(F)c2)O1 (racemic) [Compound I-428]	< 0.1 µM
CNC(=O)Cn1cnc2cc(-c3nn(-c4ccccc4)c(NC(=O)N[C@@H]4CN(CCOC)O[C@H]4c4ccnc(F)c4)c3C)cnc21 (racemic) [Compound I-401]	< 0.1 µM
COCCN1C[C@@H](NC(=O)Nc2c(C)c(-c3cnc(N4CCN(CC#N)CC4)nc3)nn2-c2ccccc2)[C@H](c2ccnc(F)c2)O1 (racemic) [Compound I-416]	< 0.1 µM
CNC(=O)c1cc(-c2nn(-c3ccccc3)c(NC(=O)N[C@@H]3CN(CCOC)O[C@H]3c3ccc(F)c(F)c3)c2C)cnc1OC [Compound I-391]	< 0.1 µM
CNC(=O)c1ncc(-c2nn(-c3ccccc3)c(NC(=O)N[C@@H]3CN(CCOC)O[C@H]3c3ccnc(F)c3)c2C)cc1CF (racemic) [Compound I-437]	< 0.1 µM
COCCN1C[C@@H](NC(=O)Nc2c(C)c(-c3ccn4ccnc4c3)nn2-c2ccccc2)[C@H](c2ccc(F)c(F)c2)O1 [Compound I-461]	< 0.1 µM
COCCN1C[C@@H](NC(=O)Nc2c(C)c(-c3cnc(N4CCN(C(=O)OCc5ccccc5)CC4)nc3)nn2-c2ccccc2)[C@H](c2ccc(F)c(F)c2)O1 [Compound I-475]	< 0.1 µM
COCCN1C[C@@H](NC(=O)Nc2c(C)c(-c3cc(C(=O)NC(C)(C)C(F)(F)F)c(=O)n(C)c3)nn2-c2ccccc2)[C@H](c2ccnc(F)c2)O1 (racemic) [Compound I-390]	< 0.1 µM
COCCN1C[C@@H](NC(=O)Nc2c(C)c(N3CC(c4ccc(F)cc4)C3)nn2-c2ccccc2)[C@H](c2cnc(F)c(F)c2)O1 (racemic) [Compound I-336]	< 0.1 µM
COCCN1C[C@@H](NC(=O)Nc2c(C)c(-c3cnc(N4CCNCC4)nc3)nn2-c2ccccc2)[C@H](c2cc(F)nc(F)c2)O1 (racemic) [Compound I-415]	< 0.1 µM

same assay, conditions: Table 156, human TrkA inhibition; read-out: IC50

Compound	IC50
COCCN1C[C@@H](NC(=O)Nc2c(C)c(C)nn2-c2ccccc2)[C@H](c2ccc(F)c(F)c2)O1 [Compound I-518]	< 0.1 µM
CC(=O)N1CCC(COc2nn(-c3ccccc3)c(NC(=O)N[C@@H]3CN(CCF)O[C@H]3c3ccc(F)c(F)c3)c2C)CC1 (racemic) [Compound I-564]	< 0.1 µM
COCCN1C[C@@H](NC(=O)Nc2c(C)c(-c3cnc4c(c3)CCO4)nn2-c2ccccc2)[C@H](c2ccnc(F)c2)O1 (racemic) [Compound I-530]	< 0.1 µM
COCCN1C[C@@H](NC(=O)Nc2c(C)c(OCC3CN(C(C)=O)CCO3)nn2-c2ccccc2)[C@H](c2ccc(F)c(F)c2)O1 (single isomer, unassigned) [Compound I-577]	< 0.1 µM

same assay, conditions: Table 157, human TrkA inhibition; read-out: IC50

Compound	IC50
CCN1C[C@@H](NC(=O)Nc2c(C)c(OCC3CN(C)C3)nn2-c2ccccc2)[C@H](c2ccc(F)c(F)c2)O1 (racemic) [Compound I-658]	< 0.1 µM
COCCN1C[C@@H](NC(=O)Nc2c(C)c(-c3cnc(N4CCN(C)C[C@H]4C)nc3)nn2-c2ccccc2)[C@H](c2ccnc(F)c2)O1 [Compound I-594]	< 0.1 µM
CCN1C[C@@H](NC(=O)Nc2c(C)c(OCc3cc(=O)ccn3C)nn2-c2ccccc2)[C@H](c2ccc(F)c(F)c2)O1 (racemic) [Compound I-644]	< 0.1 µM
COCCN1C[C@@H](NC(=O)Nc2c(C)c(CCN(C)C)nn2-c2ccccc2)[C@H](c2ccc(F)c(F)c2)O1 [Compound I-641]	< 0.1 µM
CCN1C[C@@H](NC(=O)Nc2c(C)c(OCC(=O)NCCN(C)C)nn2-c2ccccc2)[C@H](c2ccc(F)c(F)c2)O1 (racemic) [Compound I-650]	0.1 to 1 µM
COCCN1C[C@@H](NC(=O)Nc2c(C)c(OC3CCNCC3)nn2-c2ccccc2)[C@H](c2ccc(F)c(F)c2)O1 [Compound I-602]	< 0.1 µM
COCCN1C[C@@H](NC(=O)Nc2c(C)c(-c3cnc4c(c3)OCO4)nn2-c2ccccc2)[C@H](c2ccnc(F)c2)O1 (racemic) [Compound I-606]	< 0.1 µM

same assay, conditions: human TrkA 1 nmol/L, ATP 500 μmol/L, 120 min at 37° C.; read-out: IC50 values (TrkA phosphorylation inhibition)

Compound	IC50
COCCN1C[C@@H](NC(=O)Nc2c(C)c(-c3cnc4c(cnn4C4CCN(C)CC4)c3)nn2-c2ccccc2)[C@H](c2ccnc(F)c2)O1 (racemic) [Compound I-413]	0.0025 µM
COCCN1C[C@@H](NC(=O)Nc2c(C)c(-c3cnc(COC)nc3)nn2-c2ccccc2)[C@H](c2ccc(F)c(F)c2)O1 [Compound I-508]	0.0011 µM
CCN1CCC(NC(=O)c2ccc(-c3nn(-c4ccccc4)c(NC(=O)N[C@@H]4CN(CCOC)O[C@H]4c4ccc(F)c(F)c4)c3C)cc2)CC1 (racemic) [Compound I-36]	0.0014 µM
